Laboratory results from patent US10472341B2, “Bicyclic tetrahydrothiazepine derivatives useful for the treatment of neoplastic and/or infectious diseases” (APEIRON BIOLOGICS AG, priority 2015, dated 2019).

Experiments:
[1] = system: NK cells & K562 leukemia cells; assay: NK cells alone or in co-culture with K562 leukemia cells: IFN-gamma, TNF-alpha, granzyme, CD25+CD69+; assay type: cell-based, human
Procedure: Isolated PBMCs, NK cells or CD8 positive cells were plated in Xvivo medium at 1.5*10^5 cells per in 96 well culture plates in the presence of 0.3*10^4 tumor cells where indicated. Cytokine secretion was determined by ELISA, immune cell activation (using Beckman-Coulter Abs CD25-PC5, CD69-PC7), cell viability and numbers by flow cytometry (Beckman-Coulter FC500 or Gallios) using 7-AAD exclusion as criterion for living cells. One of the physiological functions of NK cells in anti-tumor immunity is the recognition and destruction of tumor cells that have a low expression of MHC-molecules, thus avoiding recognition by CD8 T cells. Downregulation of MHC molecules is often actively mediated by an infecting virus or occurs during development of malignant neoplasms. The […] leukemia cell line expresses only very low amounts of MHC-molecules and thus is often used as a model system to investigate anti-tumor NK cell reactivity. NK cells were isolated from PBMCs and were incubated with and without compounds, either alone or in co-culture with K562 leukemia cells.

K562 leukemia cells = assay: Living tumor cells (K562) in the presence of NK cells; assay type: cell-based, human
Procedure: Isolated PBMCs, NK cells or CD8 positive cells were plated in Xvivo medium at 1.5*10^5 cells per in 96 well culture plates in the presence of 0.3*10^4 tumor cells where indicated. Cytokine secretion was determined by ELISA, immune cell activation (using Beckman-Coulter Abs CD25-PC5, CD69-PC7), cell viability and numbers by flow cytometry (Beckman-Coulter FC500 or Gallios) using 7-AAD exclusion as criterion for living cells. NK cells were isolated from PBMCs and were incubated with and without compounds, either alone or in co-culture with K562 leukemia cells.

CC(C)NC(=O)c1cc2c(cc1F)S(=O)(=O)C[C@H](N)C(=O)N2Cc1ccc(Cl)cc1.Cl [Example 77, (3R)-3-amino-5-[(4-chlorophenyl)methyl]-8-fluoro-1,1,4-trioxo-N-(propan-2-yl)-2,3,4,5-tetrahydro-1λ^6,5-benzothiazepine-7-carboxamide hydrochloride]
IFN-gamma [ng/ml] Avg ([1]; 0.03 μM, NK cells & K562): 2.20 ng/mL | TNF-alpha [ng/ml] avg ([1]; 0.03 μM, NK cells & K562): 0.08 ng/mL | IFN-gamma [ng/ml] Avg ([1]; 0.03 μM, NK cells only): below | TNF-alpha [ng/ml] avg ([1]; 0.03 μM, NK cells only): below | IFN-gamma [ng/ml] Avg ([1]; 0.1 μM, NK cells & K562): 2.38 ng/mL | TNF-alpha [ng/ml] avg ([1]; 0.1 μM, NK cells & K562): 0.11 ng/mL | IFN-gamma [ng/ml] Avg ([1]; 0.1 μM, NK cells only): below | TNF-alpha [ng/ml] avg ([1]; 0.1 μM, NK cells only): below | IFN-gamma [ng/ml] Avg ([1]; 0.3 μM, NK cells & K562): 6.06 ng/mL | TNF-alpha [ng/ml] avg ([1]; 0.3 μM, NK cells & K562): 0.19 ng/mL | IFN-gamma [ng/ml] Avg ([1]; 0.3 μM, NK cells only): below | TNF-alpha [ng/ml] avg ([1]; 0.3 μM, NK cells only): below | IFN-gamma [ng/ml] Avg ([1]; 1 μM, NK cells & K562): 11.75 ng/mL | TNF-alpha [ng/ml] avg ([1]; 1 μM, NK cells & K562): 0.34 ng/mL | IFN-gamma [ng/ml] Avg ([1]; 1 μM, NK cells only): below | TNF-alpha [ng/ml] avg ([1]; 1 μM, NK cells only): below | IFN-gamma [ng/ml] Avg ([1]; 3 μM, NK cells & K562): 12.11 ng/mL | TNF-alpha [ng/ml] avg ([1]; 3 μM, NK cells & K562): 0.47 ng/mL | IFN-gamma [ng/ml] Avg ([1]; 3 μM, NK cells only): below | TNF-alpha [ng/ml] avg ([1]; 3 μM, NK cells only): below | IFN-gamma [ng/ml] Avg ([1]; 10 μM, NK cells & K562): 17.15 ng/mL | TNF-alpha [ng/ml] avg ([1]; 10 μM, NK cells & K562): 0.57 ng/mL | IFN-gamma [ng/ml] Avg ([1]; 10 μM, NK cells only): below | TNF-alpha [ng/ml] avg ([1]; 10 μM, NK cells only): below | IFN-gamma [ng/ml] Avg ([1]; 30 μM, NK cells & K562): 19.12 ng/mL | TNF-alpha [ng/ml] avg ([1]; 30 μM, NK cells & K562): 0.70 ng/mL | IFN-gamma [ng/ml] Avg ([1]; 30 μM, NK cells only): below | TNF-alpha [ng/ml] avg ([1]; 30 μM, NK cells only): below | CD25+CD69+ ([1]; NK cells & K562, 0.03 μM): 1.77 % gated | Granzyme ([1]; NK cells & K562, 0.03 μM): 0.48 ng/mL | CD25+CD69+ ([1]; NK cells & K562, 0.1 μM): 2.29 % gated | Granzyme ([1]; NK cells & K562, 0.1 μM): 0.52 ng/mL | CD25+CD69+ ([1]; NK cells & K562, 0.3 μM): 4.44 % gated | Granzyme ([1]; NK cells & K562, 0.3 μM): 0.68 ng/mL | CD25+CD69+ ([1]; NK cells & K562, 1 μM): 10.74 % gated | Granzyme ([1]; NK cells & K562, 1 μM): 0.90 ng/mL | CD25+CD69+ ([1]; NK cells & K562, 3 μM): 13.55 % gated | Granzyme ([1]; NK cells & K562, 3 μM): 1.15 ng/mL | CD25+CD69+ ([1]; NK cells & K562, 10 μM): 17.81 % gated | Granzyme ([1]; NK cells & K562, 10 μM): 1.41 ng/mL | CD25+CD69+ ([1]; NK cells & K562, 30 μM): 25.06 % gated | Granzyme ([1]; NK cells & K562, 30 μM): 2.12 ng/mL | production of IFN-gamma and TNF-alpha ([1]; NK cells in co-culture with K562 leukemia cells): enhanced production of both cytokines specifically upon tumor cell contact | enhancement of IFN-gamma and TNF-alpha production ([1]; NK cells in the absence of tumor cells): such effect was not detected in the absence of tumor cells | CD25+CD69+ ([1]; NK cells only, 0.03 μM): 0.01 % gated | Granzyme ([1]; NK cells only, 0.03 μM): 0.08 ng/mL | CD25+CD69+ ([1]; NK cells only, 0.1 μM): 0.02 % gated | Granzyme ([1]; NK cells only, 0.1 μM): 0.06 ng/mL | CD25+CD69+ ([1]; NK cells only, 0.3 μM): 0.05 % gated | Granzyme ([1]; NK cells only, 0.3 μM): 0.08 ng/mL | CD25+CD69+ ([1]; NK cells only, 1 μM): 0.15 % gated | Granzyme ([1]; NK cells only, 1 μM): 0.05 ng/mL | CD25+CD69+ ([1]; NK cells only, 3 μM): 0.24 % gated | Granzyme ([1]; NK cells only, 3 μM): 0.05 ng/mL | CD25+CD69+ ([1]; NK cells only, 10 μM): 0.46 % gated | Granzyme ([1]; NK cells only, 10 μM): 0.10 ng/mL | CD25+CD69+ ([1]; NK cells only, 30 μM): 0.95 % gated | Granzyme ([1]; NK cells only, 30 μM): 0.16 ng/mL | Living tumor cells (K562 leukemia cells; K562 only, 0.3 μM): 31786.33 | Living tumor cells (K562 leukemia cells; K562 only, 3 μM): 21495.00 | Living tumor cells (K562 leukemia cells; K562 only, 30 μM): 22503.00 | Living tumor cells (K562 leukemia cells; NK cells & K562, 0.01 μM): 696.00 | Living tumor cells (K562 leukemia cells; NK cells & K562, 0.03 μM): 636.00 | Living tumor cells (K562 leukemia cells; NK cells & K562, 0.1 μM): 567.00 | Living tumor cells (K562 leukemia cells; NK cells & K562, 0.3 μM): 589.00 | Living tumor cells (K562 leukemia cells; NK cells & K562, 1 μM): 520.33 | Living tumor cells (K562 leukemia cells; NK cells & K562, 3 μM): 406.33 | Living tumor cells (K562 leukemia cells; NK cells & K562, 10 μM): 398.33 | Living tumor cells (K562 leukemia cells; NK cells & K562, 30 μM): 408.33
